Reference: patent US4459290A, “C-23-Modified derivatives of OMT, pharmaceutical compositions and method of use” (priority 1982, dated 1984)
Where a name gives a salt, the structure may show the parent alone. Read-outs that look alike come from different tables or passages of the source.

Columns and labels:
[1] = tested on: Streptococcus pyogenes C203; assay: MIC, standard agar-dilution assay (Table V); assay type: cell-based; details: Streptococcus pyogenes; S. pyogenes C203; agar dilution; read-out: MIC
Experimental: (§1) The MIC's in Tables V and VI were determined by standard agar-dilution assays. The MIC's in Table VII were obtained using a conventional broth-dilution microtiter test.

[2] = tested on: Haemophilus influenzae Holt; assay: MIC, standard agar-dilution assay (Table V); assay type: cell-based; details: Haemophilus influenzae; H. influenzae Holt, ampicillin-sensitive strain; agar dilution; read-out: MIC
Experimental: as §1

Escherichia coli TEM = assay: MIC, standard agar-dilution assay (Table V); assay type: cell-based; details: Escherichia coli
Experimental: as §1

[3] = tested on: Haemophilus influenzae R252; assay: MIC, standard agar-dilution assay (Table V); assay type: cell-based; details: Haemophilus influenzae; H. influenzae R252, ampicillin-resistant strain; agar dilution; read-out: MIC
Experimental: as §1

Pasteurella multocida = assay: Protection of one-day-old chicks against Pasteurella multocida infection (Table IX); assay type: in vivo; details: subcutaneous 30 mg/kg × 2, 1 and 4 hours post-challenge
Experimental: The C-23 modified derivatives of OMT have also shown in vivo antibacterial activity against infections induced by gram-negative bacteria. Table IX summarizes the results of tests in which illustrative compounds were evaluated against Pasteurella infections in one-day-old chicks. The compounds were administered by subcutaneous injection at a dosage of 30 mg/kg, 1 and 4 hours post-challenge of the chicks with Pasteurella multocida (0.1 ml of a twenty-hour tryptose broth culture of an avian P. multocida given subcutaneously). In the tests, all ten non-medicated infected chicks died within 24 hours of Pasteurella challenge.

[4] = tested on: Streptococcus pyogenes C203; assay: ED50 in mice experimentally infected with S. pyogenes C203 (Table VIII); assay type: in vivo
Experimental: The C-23 modified derivatives of OMT of this invention have shown in vivo antimicrobial activity against experimental infections. When two doses of test compound were administered to mice experimentally infected with a gram-positive bacterium, S. pyogenes C203, the activity observed was measured as an ED50 value [effective dose in mg/kg to protect 50% of the test animals: see Warren Wick, et al., J. Bacteriol. 81, 233-235 (1961)].

[5] = tested on: Streptococcus pneumoniae Park I; assay: microbe, parasite or virus in culture; assay type: cell-based; details: Streptococcus pneumoniae; S. pneumoniae Park I; agar dilution; read-out: MIC
Experimental: (§2) Especially noteworthy is the improved activity against gram-negative bacteria for several derivatives when compared to the activity of OMT. […] The MIC's in Tables V and VI were determined by standard agar-dilution assays. The MIC's in Table VII were obtained using a conventional broth-dilution microtiter test.

Escherichia coli EC14 = assay: MIC, standard agar-dilution assay (Table V); assay type: cell-based; details: Escherichia coli, EC14
Experimental: as §2

Streptococcus Group 9960 = assay: MIC, standard agar-dilution assay (Table V); assay type: cell-based; details: GROUP9960
Experimental: as §2

[6] = tested on: Streptococcus Group D X66; assay: MIC, standard agar-dilution assay (Table V); assay type: cell-based
Experimental: as §2

[7] = tested on: Klebsiella pneumoniae KAE; assay: MIC, standard agar-dilution assay (Table V); assay type: cell-based; details: Klebsiella pneumoniae
Experimental: as §2

[8] = tested on: Staphylococcus aureus V41; assay: MIC, standard agar-dilution assay (Table V); assay type: cell-based; details: Staphylococcus aureus, V41
Experimental: as §2

[9] = tested on: Staphylococcus aureus S13E; assay: MIC, standard agar-dilution assay (Table V); assay type: cell-based; details: Staphylococcus aureus, S13E
Experimental: as §2

[10] = tested on: Staphylococcus aureus X400; assay: MIC, standard agar-dilution assay (Table V); assay type: cell-based; details: Staphylococcus aureus, X400
Experimental: as §2

Shigella sonnei N9 = assay: MIC, standard agar-dilution assay (Table V); assay type: cell-based
Experimental: as §2

[11] = tested on: Staphylococcus aureus X1.1; assay: MIC, standard agar-dilution assay (Table V); assay type: cell-based; details: Staphylococcus aureus, X1.1
Experimental: as §2

[12] = tested on: Staphylococcus epidermidis EPI1; assay: MIC, standard agar-dilution assay (Table V); assay type: cell-based; details: Staphylococcus epidermidis; S. epidermidis EPI1; agar dilution; read-out: MIC
Experimental: as §2

[13] = tested on: Klebsiella pneumoniae X26; assay: MIC, standard agar-dilution assay (Table V); assay type: cell-based; details: Klebsiella pneumoniae; K. pneumoniae X26; agar dilution; read-out: MIC
Experimental: as §2

Escherichia coli N10 = assay: MIC, standard agar-dilution assay (Table V); assay type: cell-based; details: Escherichia coli, N10
Experimental: as §2

[14] = tested on: Staphylococcus epidermidis EPI2; assay: MIC, standard agar-dilution assay (Table V); assay type: cell-based; details: Staphylococcus epidermidis, EPI2
Experimental: as §2

Mycoplasma synoviae = assay: MIC, broth-dilution microtiter test (Table VII); assay type: cell-based; details: Mycoplasmopsis synoviae
Experimental: as §2

[15] = tested on: Pasteurella multocida 60A; assay: MIC, broth-dilution microtiter test (Table VII); assay type: cell-based; details: Pasteurella multocida, 60A
Experimental: as §2

[16] = tested on: Pasteurella hemolytica 41D; assay: MIC, broth-dilution microtiter test (Table VII); assay type: cell-based; details: Pasteurella, P. hemolytica 41D, read-out: MIC
Experimental: as §2

Streptococcus sp. 80 = assay: MIC, broth-dilution microtiter test (Table VII); assay type: cell-based; details: Streptococcus sp. 80; broth-dilution microtiter; read-out: MIC
Experimental: as §2

Mycoplasma gallisepticum = assay: MIC, broth-dilution microtiter test (Table VII); assay type: cell-based; details: Mycoplasmoides gallisepticum
Experimental: as §2

Staphylococcus aureus = assay: MIC, broth-dilution microtiter test (Table VII); assay type: cell-based; details: Staphylococcus aureus; S. aureus; broth-dilution microtiter; read-out: MIC
Experimental: as §2

Mycoplasma hyorhinis = assay: MIC, broth-dilution microtiter test (Table VII); assay type: cell-based; details: M. hyorhinis; broth-dilution microtiter; read-out: MIC
Experimental: as §2

[17] = tested on: Pasteurella multocida 40G; assay: MIC, broth-dilution microtiter test (Table VII); assay type: cell-based; details: Pasteurella multocida; P. multocida 40G; broth-dilution microtiter; read-out: MIC
Experimental: as §2

[18] = tested on: Pasteurella multocida 68C; assay: MIC, broth-dilution microtiter test (Table VII); assay type: cell-based; details: Pasteurella multocida; P. multocida 68C; broth-dilution microtiter; read-out: MIC
Experimental: as §2

[19] = tested on: Pasteurella hemolytica 22C; assay: MIC, broth-dilution microtiter test (Table VII); assay type: cell-based; details: Pasteurella, P. hemolytica 22C, read-out: MIC
Experimental: as §2

[20] = tested on: Pasteurella multocida 22A; assay: MIC, broth-dilution microtiter test (Table VII); assay type: cell-based; details: Pasteurella multocida; P. multocida 22A; broth-dilution microtiter; read-out: MIC
Experimental: as §2

[21] = tested on: Pasteurella multocida 17E; assay: MIC, broth-dilution microtiter test (Table VII); assay type: cell-based; details: Pasteurella multocida, 17E
Experimental: as §2

[22] = tested on: Pasteurella hemolytica 23C; assay: MIC, broth-dilution microtiter test (Table VII); assay type: cell-based; details: Pasteurella, P. hemolytica 23C, read-out: MIC
Experimental: as §2

CCC1OC(=O)CC(O)C(C)C(OC2OC(C)C(O)C(N(C)C)C2O)C(CC=O)CC(C)C(=O)C=CC(C)=CC1CNC(=O)[C@H](N)c1ccccc1 (single isomer, unassigned) [Compound 12, 23-Deoxy-23-N-(D-(-)-phenylglycyl)amino-OMT bis(trifluoroacetate) salt]
MIC [1]: 0.5 µg/mL | MIC [2]: 16 µg/mL | MIC (Escherichia coli TEM): > 128 µg/mL | MIC [3]: 16 µg/mL | Number of deaths/number treated (Pasteurella multocida): 9/10 | ED50 ([4]; C203, po, read-out: ED50, Oral): > 100 mg/kg | ED50 ([4]; C203, sc, mice, subcutaneous, doses given 1 and 4 hours postinfection, read-out: ED50, Subcutaneous): 6.2 mg/kg | MIC [5]: 0.5 µg/mL | MIC (Escherichia coli EC14): > 128 µg/mL | MIC (Streptococcus Group 9960): 8 µg/mL | MIC [6]: 8 µg/mL | MIC [7]: > 128 µg/mL | MIC [8]: 8 µg/mL | MIC [9]: 8 µg/mL | MIC [10]: 8 µg/mL | MIC (Shigella sonnei N9): > 128 µg/mL | MIC [11]: 4 µg/mL | MIC [12]: 4 µg/mL | MIC [13]: 16 µg/mL | MIC (Escherichia coli N10): > 128 µg/mL | MIC [14]: 8 µg/mL | MIC (Mycoplasma synoviae): 3.12 µg/mL | MIC [15]: 12.5 µg/mL | MIC [16]: 50 µg/mL | MIC (Streptococcus sp. 80): 6.25 µg/mL | MIC (Mycoplasma gallisepticum): 3.12 µg/mL | MIC (Staphylococcus aureus): 6.25 µg/mL | MIC (Mycoplasma hyorhinis): > 50 µg/mL | MIC [17]: 25 µg/mL | MIC [18]: 25 µg/mL | MIC [19]: 50 µg/mL | MIC [20]: 25 µg/mL | MIC [21]: 12.5 µg/mL | MIC [22]: 50 µg/mL
